Experimental data from the supplement of paper PMC10307832.

Assays:
Test in all cases: relative viability (nuclei count vs DMSO), 5 days (fraction); higher = more cells survive
Pemetrexed + Lapatinib = compound: Nc1nc2[nH]cc(CCc3ccc(C(=O)N[C@@H](CCC(=O)O)C(=O)O)cc3)c2c(=O)[nH]1 [Pemetrexed] + CS(=O)(=O)CCNCc1ccc(-c2ccc3ncnc(Nc4ccc(OCc5cccc(F)c5)c(Cl)c4)c3c2)o1 [Lapatinib] (partner 2 µM)
How it was run: (§1)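 Lung cancer cell lines were pin-tool dosed in 1536-well plates on the day after seeding, with either a lone drug or a fixed anchor-drug dose plus five library-drug doses (not always all listed) in √10 steps. Nuclei were counted on 4× images after 5 days. Relative viability is the ratio of treated-well to vehicle-well nuclei counts, with each value a median of duplicate plates.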

Pemetrexed + Decitabine = compound: Nc1nc2[nH]cc(CCc3ccc(C(=O)N[C@@H](CCC(=O)O)C(=O)O)cc3)c2c(=O)[nH]1 [Pemetrexed] + Nc1ncn([C@H]2C[C@H](O)[C@@H](CO)O2)c(=O)n1 [Decitabine] (partner 2 µM)
How it was run: as §1

Idelalisib + Pictilisib = compound: CC[C@H](Nc1ncnc2[nH]cnc12)c1nc2cccc(F)c2c(=O)n1-c1ccccc1 [Idelalisib] + CS(=O)(=O)N1CCN(Cc2cc3nc(-c4cccc5[nH]ncc45)nc(N4CCOCC4)c3s2)CC1 [Pictilisib] (partner 1 µM)
How it was run: as §1

Idelalisib + OSI-027 = compound: CC[C@H](Nc1ncnc2[nH]cnc12)c1nc2cccc(F)c2c(=O)n1-c1ccccc1 [Idelalisib] + COc1cccc2cc(-c3nc([C@H]4CC[C@H](C(=O)O)CC4)n4ncnc(N)c34)[nH]c12 [OSI-027] (partner 0.5 µM)
How it was run: as §1

Row | Cell Line | relative viability (Pemetrexed + Lapatinib; first compound 0.002 µM) | relative viability (Pemetrexed + Lapatinib; first compound 0.006325 µM) | relative viability (Pemetrexed + Lapatinib; first compound 0.02 µM) | relative viability (Pemetrexed + Lapatinib; first compound 0.06325 µM) | relative viability (Pemetrexed + Lapatinib; first compound 0.2 µM) | relative viability (Pemetrexed + Decitabine; first compound 0.002 µM) | relative viability (Pemetrexed + Decitabine; first compound 0.006325 µM) | relative viability (Pemetrexed + Decitabine; first compound 0.02 µM) | relative viability (Pemetrexed + Decitabine; first compound 0.06325 µM) | relative viability (Pemetrexed + Decitabine; first compound 0.2 µM) | relative viability (Idelalisib + Pictilisib; first compound 0.04 µM) | relative viability (Idelalisib + Pictilisib; first compound 0.1265 µM) | relative viability (Idelalisib + Pictilisib; first compound 0.4 µM) | relative viability (Idelalisib + Pictilisib; first compound 1.265 µM) | relative viability (Idelalisib + Pictilisib; first compound 4 µM) | relative viability (Idelalisib + OSI-027; first compound 0.04 µM) | relative viability (Idelalisib + OSI-027; first compound 0.1265 µM) | relative viability (Idelalisib + OSI-027; first compound 0.4 µM) | relative viability (Idelalisib + OSI-027; first compound 1.265 µM) | relative viability (Idelalisib + OSI-027; first compound 4 µM)
1 | NCI-H3122 | 1.01 | 1.02 | 1.02 | 0.97 | 0.847 | 0.452 | 0.379 | 0.413 | 0.417 | 0.305 | 0.595 | 0.594 | 0.551 | 0.669 | 0.557 | 0.879 | 0.952 | 0.729 | 0.941 | 0.764
2 | NCI-H838 | 0.904 | 0.93 | 1.35 | 0.856 | 0.329 | 0.475 | 0.45 | 0.516 | 0.365 | 0.274 | 0.505 | 0.469 | 0.346 | 0.531 | 0.469 | 0.416 | 0.346 | 0.271 | 0.453 | 0.317
3 | NCI-H1755 | 0.808 | 1 | 1.03 | 1.04 | 0.894 | 0.708 | 0.738 | 0.734 | 0.693 | 0.695 | 0.444 | 0.466 | 0.358 | 0.41 | 0.372 | 0.69 | 0.687 | 0.584 | 0.675 | 0.573
4 | HCC-15 | 0.751 | 0.763 | 1 | 0.655 | 0.444 | 0.483 | 0.604 | 0.684 | 0.406 | 0.191 | 0.762 | 0.748 | 0.662 | 0.866 | 0.728 | 0.702 | 0.754 | 0.509 | 0.869 | 0.668
5 | NCI-H2087 | 0.965 | 0.952 | 1.21 | 0.927 | 0.644 | 0.268 | 0.237 | 0.332 | 0.238 | 0.262 | 0.989 | 0.743 | 0.853 | 0.907 | 0.904 | 0.593 | 0.513 | 0.324 | 0.633 | 0.319
6 | NCI-H1650 | 0.804 | 0.699 | 0.8 | 0.505 | 0.349 | 0.426 | 0.32 | 0.545 | 0.249 | 0.317 | 0.668 | 0.608 | 0.553 | 0.645 | 0.593 | 0.641 | 0.602 | 0.478 | 0.578 | 0.536
7 | LK-2 | 0.863 | 0.877 | 1.13 | 0.775 | 0.521 | 0.277 | 0.358 | 0.259 | 0.251 | 0.263 | 0.545 | 0.431 | – | 0.534 | 0.586 | 0.219 | 0.223 | – | 0.198 | 0.183
8 | HCC-78 | – | 0.796 | 0.58 | 0.223 | 0.153 | – | 0.685 | 0.777 | 0.324 | 0.307 | 0.222 | 0.208 | 0.206 | 0.21 | 0.228 | 0.413 | 0.364 | 0.324 | 0.36 | 0.293
